Results on six compounds are retold here after ChEMBL document CHEMBL1201862, “PubChem BioAssay data set” (2004).

Test [1] is described as follows: non-specific 3'UTR reporter inhibition in Clone20-Shn3RL – cell-based, Renilla luciferase, cherry-picked, counter-screen for Shn3 inhibitor project, dose response (AID 624133). It is filed as functional. For orientation: A counterscreen serves to expose hits that act by an unwanted route or on another target.
The nature of test [2]: loss of viability in HepG2 cells – cell-based, CellTiter-Glo, cherry-picked, cytotoxicity control for Shn3 inhibitor project, dose response (AID 624134). It is filed as functional. In general terms: ATP-based viability assays read luminescence as a measure of living cells.
A short description of test [3]: reduction of Shn3 3'UTR-driven luciferase in osteoblasts – cell-based, Clone20 osteoblasts, firefly luciferase, cherry-picked, dose response (AID 624132).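 Note: firefly luciferase luminescence from reporter carrying the Shn3 3'UTR in osteoblasts.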 It is filed as functional.
A short description of a further test: cells. The class given is functional, cell-based. To be noted: HEK-CNG.
Test [4] concerns the target COUP transcription factor 2 (Homo sapiens, UniProt P24468). As to the kind of experiment: Luminescence-based cell-based high throughput dose response assay to identify inhibitors of COUP-TFII (NR2F2). The class given is functional.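 Note: HEK293 cells transiently cotransfected with COUP-TFII expression vector and reporter; luciferase reporter luminescence driven by COUP-TFII from the pX2-168 reporter plasmid.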
The target in a further test is T1, Galanin receptor type 3 (Homo sapiens, UniProt O60755).
T1 sequence (O60755 whole entry): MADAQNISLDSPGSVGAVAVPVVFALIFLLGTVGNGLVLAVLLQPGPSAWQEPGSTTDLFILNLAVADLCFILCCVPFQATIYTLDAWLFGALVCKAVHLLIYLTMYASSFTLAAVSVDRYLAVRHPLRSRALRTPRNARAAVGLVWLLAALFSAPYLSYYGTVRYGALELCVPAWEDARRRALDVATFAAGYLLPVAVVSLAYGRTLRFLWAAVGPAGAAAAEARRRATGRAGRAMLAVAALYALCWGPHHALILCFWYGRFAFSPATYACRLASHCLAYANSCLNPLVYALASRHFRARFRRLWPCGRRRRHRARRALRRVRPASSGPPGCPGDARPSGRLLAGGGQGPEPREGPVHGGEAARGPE
As to the kind of experiment: Fluorescence-based cell-based primary high throughput dose response assay to identify antagonists of the Galanin Receptor 3 (GalR3). The class given is functional.

Test [5] has as its system HEK293. Briefly: cells. Conditions: Homo sapiens. The class given is functional, cell-based.
The test system of test [6] is HEK293. As to the kind of experiment: NOD2 signaling inhibitors in MDP-stimulated cells, cell-based, uHTS, luminescence (AID 2001). To be noted: Homo sapiens. It is filed as functional.
Test [7] concerns HEK293. Briefly: inhibition of NOD1-driven NF-kB reporter – cell-based, luminescence, uHTS, primary screen (AID 1578). It is filed as functional. Conditions: Homo sapiens.
Test [8] deals with HEK293. Briefly: cells. It is filed as functional, cell-based. To be noted: Homo sapiens. The source holds these as a separate data set.
Test [9] can be described thus: NIH3T3 cell viability loss – ATP luminescence, mouse fibroblasts, counter-screen, dose response (AID 2010).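 Note: cells exposed to compound for about 90 hours before reading.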 It is filed as functional, cell-based.
Test [10] in a line: viability loss in HepG2 hepatoma cells – cell-based, ATP luminescence, cherry-pick, activator set 2, cytotoxicity control, dose response (AID 1053143). The class given is functional.
Test [11] in a line: Trypanosoma cruzi growth suppression in host cells – NIH3T3 host cells, beta-gal luminescence, confirmation (AID 2044).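 Note: intracellular parasites grown in NIH/3T3 mouse fibroblasts as host cells; luminescent beta-galactosidase reporter signal from transgenic T. cruzi replicating inside host cells; inhibitors lower the luminescence signal.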 It is filed as functional, cell-based.
The nature of test [12]: viability loss in HeLa cells – cytotoxicity control for MgcRacGAP inhibitor project, dose response (AID 624300). It is filed as functional.
Another test concerns the target Nonstructural protein 1 (Influenza A virus, UniProt Q194T2). It is filed as functional, Influenza A virus (A/California/07/2009(H1N1)).
The target in test [13] is T2, DNA repair protein RAD52 homolog (Homo sapiens, UniProt P43351).
T2 sequence (P43351 whole entry): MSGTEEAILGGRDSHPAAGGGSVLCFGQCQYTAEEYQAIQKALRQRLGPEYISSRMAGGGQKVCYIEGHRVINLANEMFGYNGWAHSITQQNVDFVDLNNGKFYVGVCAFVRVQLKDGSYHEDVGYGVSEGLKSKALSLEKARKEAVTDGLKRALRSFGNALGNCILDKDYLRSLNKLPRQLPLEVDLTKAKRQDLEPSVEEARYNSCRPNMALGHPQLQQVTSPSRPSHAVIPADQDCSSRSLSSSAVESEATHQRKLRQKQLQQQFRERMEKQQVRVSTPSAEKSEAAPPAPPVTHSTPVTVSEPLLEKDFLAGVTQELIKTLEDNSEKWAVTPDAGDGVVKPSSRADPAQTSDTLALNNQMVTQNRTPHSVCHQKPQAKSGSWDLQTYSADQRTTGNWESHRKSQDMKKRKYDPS
The class given is functional, biochemical.

Test [14] concerns the target Matrix metalloproteinase-14 (Homo sapiens, UniProt P50281). Briefly: Dose Response confirmation of uHTS hits for a small molecule inhibitors of MT1-MMP activation in a fluorescence assay set 1. It is filed as functional.
Test [15] concerns the target T3, Rac GTPase-activating protein 1 (Homo sapiens, UniProt Q9H0H5).
T3 sequence (Q9H0H5 whole entry): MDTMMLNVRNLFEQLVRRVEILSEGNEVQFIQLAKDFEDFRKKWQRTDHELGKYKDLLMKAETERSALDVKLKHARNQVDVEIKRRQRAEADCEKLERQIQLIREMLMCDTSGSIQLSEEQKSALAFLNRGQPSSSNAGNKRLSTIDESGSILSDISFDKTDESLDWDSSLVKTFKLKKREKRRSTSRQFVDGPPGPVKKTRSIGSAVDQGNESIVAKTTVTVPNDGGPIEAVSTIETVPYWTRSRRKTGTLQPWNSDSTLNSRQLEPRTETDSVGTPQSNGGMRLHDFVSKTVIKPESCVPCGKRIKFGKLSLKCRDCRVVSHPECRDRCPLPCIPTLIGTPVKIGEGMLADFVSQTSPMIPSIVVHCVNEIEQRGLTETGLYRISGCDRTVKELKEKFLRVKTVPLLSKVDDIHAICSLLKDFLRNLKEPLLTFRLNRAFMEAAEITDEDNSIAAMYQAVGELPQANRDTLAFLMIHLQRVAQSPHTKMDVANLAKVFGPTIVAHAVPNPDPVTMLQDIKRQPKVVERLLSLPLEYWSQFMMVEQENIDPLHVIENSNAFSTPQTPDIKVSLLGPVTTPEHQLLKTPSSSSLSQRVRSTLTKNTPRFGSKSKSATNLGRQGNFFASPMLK
Briefly: blockers of MgcRacGAP-driven Rac1 GTP hydrolysis – biochemical, ADP Hunter fluorescence, primary and confirmatory, confirmation (AID 624330). It is filed as functional.

In test [16] the target is T4, Histone-lysine N-methyltransferase NSD2 (Homo sapiens, UniProt O96028).
T4 sequence (O96028 whole entry): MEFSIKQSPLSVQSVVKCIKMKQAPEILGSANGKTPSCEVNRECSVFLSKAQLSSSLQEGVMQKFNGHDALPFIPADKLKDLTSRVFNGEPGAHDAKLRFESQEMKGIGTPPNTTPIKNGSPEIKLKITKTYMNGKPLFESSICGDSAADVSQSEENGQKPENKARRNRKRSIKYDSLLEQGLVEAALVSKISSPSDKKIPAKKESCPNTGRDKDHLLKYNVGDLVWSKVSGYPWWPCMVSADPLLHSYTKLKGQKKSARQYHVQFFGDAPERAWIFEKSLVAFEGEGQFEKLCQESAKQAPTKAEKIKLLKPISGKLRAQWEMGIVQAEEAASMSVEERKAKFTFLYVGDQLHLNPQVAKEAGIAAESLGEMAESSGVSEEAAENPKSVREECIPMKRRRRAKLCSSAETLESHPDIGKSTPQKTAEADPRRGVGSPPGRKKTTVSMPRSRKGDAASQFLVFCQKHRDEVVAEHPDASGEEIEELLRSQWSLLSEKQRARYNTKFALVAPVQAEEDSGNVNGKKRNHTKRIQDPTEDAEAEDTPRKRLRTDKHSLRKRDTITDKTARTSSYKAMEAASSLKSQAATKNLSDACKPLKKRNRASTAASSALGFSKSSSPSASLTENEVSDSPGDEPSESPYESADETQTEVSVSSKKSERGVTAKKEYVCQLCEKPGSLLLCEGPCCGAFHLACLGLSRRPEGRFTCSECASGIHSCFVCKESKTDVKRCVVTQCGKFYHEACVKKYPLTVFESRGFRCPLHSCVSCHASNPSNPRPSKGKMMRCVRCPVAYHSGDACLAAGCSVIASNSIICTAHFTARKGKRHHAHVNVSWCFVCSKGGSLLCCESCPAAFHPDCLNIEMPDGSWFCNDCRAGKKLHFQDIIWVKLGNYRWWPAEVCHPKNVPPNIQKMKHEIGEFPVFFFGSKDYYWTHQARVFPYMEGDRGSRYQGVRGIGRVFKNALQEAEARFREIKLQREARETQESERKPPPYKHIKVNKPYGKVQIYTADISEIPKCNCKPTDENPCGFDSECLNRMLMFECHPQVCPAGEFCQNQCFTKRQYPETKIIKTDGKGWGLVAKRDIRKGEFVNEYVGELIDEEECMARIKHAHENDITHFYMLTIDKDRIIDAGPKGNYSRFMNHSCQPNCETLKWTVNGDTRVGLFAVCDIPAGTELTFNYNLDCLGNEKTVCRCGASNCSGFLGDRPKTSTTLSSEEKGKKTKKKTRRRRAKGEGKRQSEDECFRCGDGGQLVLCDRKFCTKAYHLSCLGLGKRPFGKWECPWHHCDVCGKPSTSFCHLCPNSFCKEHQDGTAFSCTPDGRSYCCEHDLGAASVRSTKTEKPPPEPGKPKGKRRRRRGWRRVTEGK
The class given is biochemical.

Test [17] is described as follows: HGIII-sPLA2 enzyme inhibition potency – biochemical, QFRET, IC50, dose response (AID 743457).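 Note: green fluorescence rise as the enzyme cleaves BODIPY PC-A2 in liposomes.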
Test [18] can be described thus: Reduced DLD-1 viability, concentration-response, CellTiter-Glo luminescence (AID 1117352). The class given is functional.
A short description of test [19]: cytotoxicity toward HT-29 cells – cell-based, CellTiter-Glo luminescence, IC50, dose response (AID 1117330). It is filed as functional.
A short description of test [20]: cytotoxicity toward Colo320 cells – cell-based, CellTiter-Glo luminescence, IC50, dose response (AID 1117334). The class given is functional. To be noted: COLO 320.
Test [21] is described as follows: SNU-C1 cell viability reduction, dose response, CellTiter-Glo luminescence (AID 1117323). The class given is functional, cell-based.
Test [22] can be described thus: cytotoxicity toward HCT116 cells – cell-based, CellTiter-Glo luminescence, IC50, dose response (AID 1117332). It is filed as functional. To be noted: HCT-116.
A short description of test [23]: RKO cell viability reduction, dose response, CellTiter-Glo luminescence (AID 1117322). The class given is functional.
Test [24] is described as follows: CellTiter-Glo luminescence survival assay, SW480 colon tumor line, concentration-response curve, half-maximal inhibitory concentration (AID 1117338). It is filed as functional.
Test [25] concerns the target Luciferin 4-monooxygenase (Photinus pyralis, UniProt P08659). As to the kind of experiment: inhibition of purified Photinus pyralis luciferase – biochemical, luminescence, dose response (AID 1891).
Test [26] can be described thus: Luminescence Cell-Based Dose Confirmation HTS to Identify Inhibitors of Platelet Dense Granule Release. [Related pubchem assays: 1663 (Primary HTS), 1678 (Summary of Project)]. It is filed as functional.

The term AC50 denotes the midpoint of the concentration-response curve, whichever way the signal moves. What is called EC50 is the midpoint of the concentration-response curve. In general, IC50 refers to the midpoint of a concentration-inhibition curve. Usually CC50 stands for the concentration that lowers cell viability or growth by half.

Calls of active or inactive are those of the source.

COUP transcription factor 2, sequence (P24468 whole entry): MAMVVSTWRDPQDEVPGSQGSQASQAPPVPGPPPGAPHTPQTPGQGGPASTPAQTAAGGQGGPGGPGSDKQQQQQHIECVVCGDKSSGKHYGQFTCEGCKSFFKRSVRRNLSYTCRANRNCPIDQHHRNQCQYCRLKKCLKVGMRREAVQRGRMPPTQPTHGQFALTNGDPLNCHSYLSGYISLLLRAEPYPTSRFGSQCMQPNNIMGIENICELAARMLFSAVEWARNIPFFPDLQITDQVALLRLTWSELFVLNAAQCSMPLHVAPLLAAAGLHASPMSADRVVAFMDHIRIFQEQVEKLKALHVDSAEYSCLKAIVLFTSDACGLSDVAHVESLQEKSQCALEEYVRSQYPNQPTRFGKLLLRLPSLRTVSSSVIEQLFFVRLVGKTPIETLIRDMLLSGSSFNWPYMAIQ
Nonstructural protein 1, sequence (Q194T2 whole entry): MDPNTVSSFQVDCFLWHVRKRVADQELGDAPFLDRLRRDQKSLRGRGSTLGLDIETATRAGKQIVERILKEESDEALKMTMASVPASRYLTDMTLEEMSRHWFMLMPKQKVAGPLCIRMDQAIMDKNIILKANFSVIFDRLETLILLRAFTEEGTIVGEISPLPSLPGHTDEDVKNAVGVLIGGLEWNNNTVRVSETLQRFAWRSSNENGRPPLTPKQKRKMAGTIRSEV
Luciferin 4-monooxygenase, sequence (P08659 whole entry): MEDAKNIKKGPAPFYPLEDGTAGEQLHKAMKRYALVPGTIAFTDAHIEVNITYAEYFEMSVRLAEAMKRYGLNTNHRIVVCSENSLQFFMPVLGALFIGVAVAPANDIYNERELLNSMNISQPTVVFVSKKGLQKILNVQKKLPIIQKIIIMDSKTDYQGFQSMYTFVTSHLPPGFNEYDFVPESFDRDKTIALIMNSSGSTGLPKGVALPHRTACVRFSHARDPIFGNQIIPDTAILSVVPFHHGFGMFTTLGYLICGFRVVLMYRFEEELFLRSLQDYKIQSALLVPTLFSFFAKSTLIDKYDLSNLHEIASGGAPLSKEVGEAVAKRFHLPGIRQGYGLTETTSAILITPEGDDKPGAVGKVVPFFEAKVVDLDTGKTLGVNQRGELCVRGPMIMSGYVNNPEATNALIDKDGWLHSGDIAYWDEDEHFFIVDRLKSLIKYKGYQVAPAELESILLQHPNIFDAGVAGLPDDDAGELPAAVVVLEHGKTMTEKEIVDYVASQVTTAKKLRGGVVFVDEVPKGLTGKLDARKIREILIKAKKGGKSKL

Regarding `COc1ccc(CNC(=O)c2cccc3c(-c4cccnc4)coc23)cc1OC`, the figures for the AC50 in test [1], in [2] and in test [3] were 2.29 µM (active), 1.66 µM (active) and 0.9 µM (active), respectively. The EC50 in “cells” is > 29.9 µM (inactive). The IC50 in test [4] was 1.47 µM (active); at Galanin receptor type 3 it was 0.126 µM (active).
As to `O=C(Cc1ccc(Cl)cc1Cl)Nc1ccncc1Cl`, the IC50 in the test with HEK293 [5] was > 20 µM (inactive); in the test on HEK293 [6], 6.02 µM (active); in test [4], 11.6 µM (inactive); in the test on HEK293 [8] it was 5.77 µM (active); on Galanin receptor type 3, 4.44 µM (active). Moreover, the AC50 in test [1] was 3.91 µM (active); in test [2], 2.91 µM (active); in test [3], 1.63 µM (active). Moreover, the EC50 in the test “cells” was > 29.9 µM (inactive); in the test on HEK293 [7] it was 3.7 µM (active).
For `CC1CCC(C(C)C)C(OC(=O)COC(=O)c2cc(O)ccc2N)C1` (stereo not drawn), the EC50 in test [9] was > 60 µM (not active); in test [11], 4.92 µM (active). Also, in test [10], the AC50 was 26 µM (active).
Turning to `CN(C)c1ccc(C=c2c3ccccc3n3c2c2c([n+]3C)CCCC2)cc1`, the CC50 in [12] was 16.9 µM (active). Besides, the IC50 was 11 µM (active) on Nonstructural protein 1; > 80 µM (inactive) in test [14]; 38.3 µM (active) in [15]; 1.31 µM (active) at Galanin receptor type 3; 71.1 µM (inactive) in [17]. Further, the EC50 in the test “cells” was > 29.9 µM (inactive). Also, the AC50 in [13] is 0.914 µM (active); in test [16], 7.63 µM (active).
On to `O=C(O)c1ccccc1OP(=O)(O)O` [FOSFOSAL], for which the IC50 in [18], in [19], in [20], in test [21], in test [22] and in test [23] was > 20 µM (inactive) in each case. Moreover, in test [24], the IC50 was > 20 µM (inactive).
Turning to `Cc1cc(NC(=O)c2cccc(F)c2)ncc1NC(=O)c1ccco1`, the results for the EC50 in [25] and in test [26] were 7.28 µM (active) and 7.21 µM (active), respectively. In addition, the AC50 in test [10] was 26 µM (active).
